Data on four molecules can be found in patent US9695155B2, “Herbicidal substituted pyrimidinyloxy benzene compounds” (E. I. DU PONT DE NEMOURS AND COMPANY, priority 2013, dated 2017).

Molecules are shown by their SMILES.

One test relates to sedge, umbrella. As to the kind of experiment: Test B flooded paddy test. Format: in vivo, Cyperus difformis. The settings on record: Flood, 250 g ai/ha, 0 to 100 scale where 0 is no effect and 100 is complete control. The method in brief:
(§1)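 Compound added straight to paddy water, with pots kept flooded 3 cm above soil, on plants grown to the 2-leaf stage. Visual scoring 0-100 (100 = complete control) against untreated controls after 13 to 15 greenhouse days.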

The next test has as its system barnyardgrass. Briefly: Test B flooded paddy test. Format: in vivo, Echinochloa crus-galli. The note with it: Flood, 250 g ai/ha, 0 to 100 scale where 0 is no effect and 100 is complete control. The method, boiled down: as §1
Another test concerns morningglory. Briefly: Test A postemergence. Type of test: in vivo, Ipomoea spp. The method, boiled down:
(§2)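 Visual 0–100 rating (100 = complete control) taken about 10 d post-treatment relative to untreated checks. Preemergence: directed soil spray on sown loam/sand pots. Postemergence: seedlings 2–10 cm, 1–2 leaf. Non-phytotoxic solvent formulation with surfactant.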

The test system of test [1] is pigweed. Briefly: Test A postemergence. Format: in vivo, Amaranthus retroflexus. The method, boiled down: as §2
In another test the test system is velvetleaf. As to the kind of experiment: Test A preemergence. Type of test: in vivo, Abutilon theophrasti. The method in brief:
as §2

Test [2] concerns pigweed. Briefly: Test A preemergence. Format: in vivo, Amaranthus retroflexus. The method, boiled down: as §2
Another test concerns Heteranthera limosa. As to the kind of experiment: Test B flooded paddy test. Format: in vivo. The note with it: Flood, 250 g ai/ha, 0 to 100 scale where 0 is no effect and 100 is complete control. The method, boiled down:
as §1

Another test concerns large (Lg) crabgrass. As to the kind of experiment: Test C postemergence. The note with it: Digitaria sanguinalis, post-emergence. Format: in vivo, Digitaria sanguinalis. The text has this: (§3) Seeds of plant species selected from blackgrass (Alopecurus myosuroides), Italian ryegrass (Lolium multiflorum), wheat, winter (winter wheat, Triticum aestivum), galium (catchweed bedstraw, Galium aparine), corn (Zea mays), large (Lg) crabgrass (Digitaria sanguinalis), giant foxtail (Setaria faberii), johnsongrass (Sorghum halepense), lambsquarters (Chenopodium album), morningglory (Ipomoea coccinea), yellow nutsedge (Cyperus esculentus), pigweed (Amaranthus retroflexus), ragweed (common ragweed, Ambrosia elatior), soybean (Glycine max), barnyardgrass (Echinochloa crus-galli), oilseed rape (Brassica napus), waterhemp (common waterhemp, Amaranthus rudis), kochia (Kochia scoparia), wild oat (Avena fatua), surinam grass (Brachiaria decumbens), foxtail, green (green foxtail, Setaria viridis), goosegrass (Eleusine indica), bromegrass, downy (downy bromegrass, Bromus tectorum), nightshade (eastern black nightshade, Solanum ptycanthum), cocklebur (common cocklebur, Xanthium strumarium), cupgrass, woolly (woolly cupgrass, Eriochloa villosa), bermudagrass (Cynodon dactylon), sunflower, (common oilseed sunflower, Helianthus annuus), Russian thistle (Salsola kali), and velvetleaf (Abutilon theophrasti) were planted into a blend of loam soil and sand and treated preemergence with test chemicals formulated in a non-phytotoxic solvent mixture which included a surfactant.
(§4) At the same time, plants selected from these crop and weed species and also barley, winter (winter barley, Hordeum vulgare), windgrass (Apera spica-venti), chickweed (common chickweed, Stellaria media), deadnettle (henbit deadnettle, Lamium amplexicaule), and canarygrass (littleseed canarygrass, Phalaris minor) were planted in pots containing Redi-Earth® planting medium (Scotts Company, 14111 Scottslawn Road, Marysville, Ohio 43041) comprising spaghnum peat moss, vermiculite, wetting agent and starter nutrients and treated with postemergence applications of test chemicals formulated in the same manner. Plants ranged in height from 2 to 18 cm (1- to 4-leaf stage) for postemergence treatments. Treated plants and controls were maintained in a greenhouse for 13 to 15 days, after which time all species were compared to controls and visually evaluated. Plant response ratings, summarized in Table C, are based on a scale of 0 to 100 where 0 is no effect and 100 is complete control. A dash (-) response means no test result.

The test system of a further test is wheat, winter. As to the kind of experiment: Test C postemergence. Format: in vivo, Triticum aestivum. The note with it: Triticum aestivum, post-emergence.
From the text: as §3, §4

For a further test, the system named is johnsongrass. As to the kind of experiment: Test C postemergence. Format: in vivo, Sorghum halepense. The note with it: Sorghum halepense, post-emergence.
From the text: as §3, §4

The test system of the next test is corn. As to the kind of experiment: Test C postemergence. The settings on record: Zea mays, post-emergence. Type of test: in vivo, Zea mays.
From the text: as §3, §4

A further test deals with chickweed. As to the kind of experiment: Test C postemergence. Format: in vivo, Stellaria media. The note with it: Stellaria media, post-emergence.
From the text: as §3, §4

Where [3] appears, read: 125 g ai/ha, 0 to 100 scale where 0 is no effect and 100 is complete control.
Where [4] appears, read: 500 g ai/ha, 0 to 100 scale where 0 is no effect and 100 is complete control.
The mark [5] stands for this setting: 125 g ai/ha, 0 to 100 scale, 0 no effect, 100 complete control.

For the molecule `FC(F)c1cccc(Oc2ncc(Cl)cn2)c1-n1cc(C(F)(F)F)cn1` [Compound 170], the “Plant response rating, Sedge, Umbrella” value with sedge, umbrella came to 90. In addition, the “Plant response rating, Barnyardgrass” value with barnyardgrass turned out to be 70. For the same molecule, the “Morningglory plant response rating” value in the test on morningglory (setting [3]) is on record as 60. Also, the “Plant response rating, Morningglory” value in the test on morningglory (setting [4]) amounted to 90. For the same molecule, the “Pigweed plant response rating” value in the test on pigweed [1] (setting [3]) and in the test with pigweed [2] (setting [4]) was 100 each time. In addition, the “Plant response rating, Pigweed” value in the test with pigweed [1] (setting [4]) was determined as 100. In addition, the “Velvetleaf plant response rating (0 to 100 scale)” value in the test with velvetleaf (125 g ai/ha) worked out at 80. In addition, in the test with velvetleaf (setting [4]), the “Velvetleaf plant response rating” value was determined as 100. Also, the “Pigweed plant response rating (0 to 100 scale)” value in the test with pigweed [2] (125 g ai/ha) is 100. For the same molecule, the “Plant response rating, Ducksalad” value with Heteranthera limosa is reported as 95.

With `N#Cc1cnn(-c2c(C#N)cccc2Oc2ncc(Br)cn2)c1` [Compound 135], the “Plant response rating, Sedge, Umbrella” value in the test on sedge, umbrella is 75. Moreover, in the test on barnyardgrass, the “Plant response rating, Barnyardgrass” value is 30. Moreover, the figures for the “Pigweed plant response rating” value in the test with pigweed [1] (setting [3]) and with pigweed [2] (setting [4]) were 70 and 100, respectively. Moreover, the “Plant response rating, Pigweed” value with pigweed [1] (setting [4]) and with pigweed [2] (setting [3]) was 100 in each case. Moreover, the “Plant response rating, Ducksalad” value in the test on Heteranthera limosa worked out at 70.

Regarding `NC(=S)c1cccc(Oc2ncc(Cl)cn2)c1-n1cc(Cl)cn1` [Compound 292], in the test with sedge, umbrella, the “Plant response rating, Sedge, Umbrella” value was found to be 75. Moreover, in the test with barnyardgrass, the “Plant response rating, Barnyardgrass” value came out at 20. Also, the “Plant response rating, Morningglory” value in the test on morningglory (setting [5]) was 90; in the test on morningglory (setting [4]), 100. Moreover, the “Plant response rating, Pigweed” value in the test on pigweed [1] (setting [5]) and in the test with pigweed [1] (setting [4]) was 100 throughout. In addition, in the test with velvetleaf (125 g ai/ha), the “Velvetleaf plant response rating (0 to 100 scale)” value came out at 30. Besides, the “Velvetleaf plant response rating” value with velvetleaf (setting [4]) is reported as 100. The “Pigweed plant response rating (0 to 100 scale)” value with pigweed [2] (125 g ai/ha) amounted to 100. The “Pigweed plant response rating” value with pigweed [2] (setting [4]) is 100. Further, the “Plant response rating, Ducksalad” value with Heteranthera limosa came to 45.

On to `Clc1cnn(-c2ccccc2Oc2ncc(Br)cn2)c1` [Compound 5, 5-bromo-2-[2-(4-chloro-1H-pyrazol-1-yl)phenoxy]pyrimidine], for which the pest or weed control at 125 g/ha is 20% with large (Lg) crabgrass (125 g ai/ha, postemergence, read-out: Plant response rating (0 to 100), Crabgrass, Large); 5% in the test with johnsongrass (125 g ai/ha, postemergence, read-out: Plant response rating (0 to 100), Johnsongrass); 80% in the test on morningglory (Ipomoea, post-emergence, 240 h, 125 g ai/ha, 0 to 100 scale where 0 is no effect and 100 is complete control, read-out: Plant response rating, Morningglory); 100% with pigweed [1] (Amaranthus retroflexus, post-emergence, 125 g ai/ha, 0 to 100 scale where 0 is no effect and 100 is complete control, read-out: Plant response rating, Pigweed); 90% in the test with velvetleaf (Abutilon theophrasti, pre-emergence, 240 h, 125 g ai/ha, 0 to 100 scale where 0 is no effect and 100 is complete control, read-out: Velvetleaf plant response rating); 100% in the test on pigweed [2] (Amaranthus retroflexus, pre-emergence, 240 h, 125 g ai/ha, 0 to 100 scale where 0 is no effect and 100 is complete control, read-out: Pigweed plant response rating). The pest or weed control at 250 g/ha with large (Lg) crabgrass (250 g ai/ha, postemergence, read-out: Plant response rating (0 to 100), Crabgrass, Large) was 20%; with sedge, umbrella (Cyperus difformis, read-out: Plant response rating, Sedge, Umbrella) it was 50%; in the test with johnsongrass (250 g ai/ha, postemergence, read-out: Plant response rating (0 to 100), Johnsongrass), 10%; in the test on barnyardgrass (Echinochloa crus-galli, read-out: Plant response rating, Barnyardgrass) it was 0%; with chickweed (250 g ai/ha, postemergence, read-out: Plant response rating (0 to 100), Chickweed), 45%; in the test on Heteranthera limosa (Heteranthera limosa, read-out: Plant response rating, Ducksalad), 50%. Moreover, the pest or weed control at 31 g/ha in the test with large (Lg) crabgrass (Postemergence, 31 g ai/ha, scale 0 to 100 (0 no effect, 100 complete control), 13 to 15 days, read-out: Plant response rating, Crabgrass, Large) stood at 5%; with johnsongrass (Postemergence, 31 g ai/ha, scale 0 to 100 (0 no effect, 100 complete control), 13 to 15 days, read-out: Plant response rating, Johnsongrass), 5%; in the test with chickweed (Postemergence, 31 g ai/ha, scale 0 to 100 (0 no effect, 100 complete control), 13 to 15 days, read-out: Plant response rating, Chickweed), 5%. For the same molecule, the pest or weed control at 62 g/ha in the test on large (Lg) crabgrass (Postemergence, 62 g ai/ha, scale 0 to 100 (0 no effect, 100 complete control), read-out: Plant response rating, Crabgrass, Large) came to 15%; in the test with johnsongrass (Postemergence, 62 g ai/ha, scale 0 to 100 (0 no effect, 100 complete control), read-out: Plant response rating, Johnsongrass), 5%; with chickweed (Postemergence, 62 g ai/ha, scale 0 to 100 (0 no effect, 100 complete control), read-out: Plant response rating, Chickweed), 15%. In addition, the plant injury at 125 g/ha with wheat, winter (125 g ai/ha, postemergence, read-out: Plant response rating (0 to 100), Wheat) is 10%; in the test with corn (125 g ai/ha, postemergence, read-out: Plant response rating (0 to 100), Corn), 60%. Also, the plant injury at 250 g/ha with wheat, winter (250 g ai/ha, postemergence, read-out: Plant response rating (0 to 100), Wheat) was determined as 40%; in the test with corn (250 g ai/ha, postemergence, read-out: Plant response rating (0 to 100), Corn), 70%. Moreover, in the test with wheat, winter (Postemergence, 31 g ai/ha, scale 0 to 100 (0 no effect, 100 complete control), 13 to 15 days, read-out: Plant response rating, Wheat), the plant injury at 31 g/ha amounted to 0%. The plant injury at 62 g/ha in the test on wheat, winter (Postemergence, 62 g ai/ha, scale 0 to 100 (0 no effect, 100 complete control), read-out: Plant response rating, Wheat) came to 5%. In addition, the pest or weed control at 500 g/ha was 90% in the test on morningglory (Ipomoea, post-emergence, 240 h, 500 g ai/ha, 0 to 100 scale, 0 no effect, 100 complete control, read-out: Plant response rating Morningglory); 100% in the test with pigweed [1] (Amaranthus retroflexus, post-emergence, 240 h, 500 g ai/ha, 0 to 100 scale, 0 no effect, 100 complete control, read-out: Plant response rating Pigweed); 100% in the test with velvetleaf (Abutilon theophrasti, pre-emergence, 240 h, 500 g ai/ha, 0 to 100 scale, 0 no effect, 100 complete control, approx. 10 days, read-out: Velvetleaf plant response rating); 100% in the test with pigweed [2] (Amaranthus retroflexus, pre-emergence, 240 h, 500 g ai/ha, 0 to 100 scale, 0 no effect, 100 complete control, approx. 10 days, read-out: Pigweed plant response rating). In addition, the Corn plant response rating (crop injury, 0 = no effect, 100 = complete kill) at 31 g/ha in the test on corn (Postemergence, 31 g ai/ha, scale 0 to 100 (0 no effect, 100 complete control), 13 to 15 days) came to 15%. In addition, the Corn plant response rating (crop injury, 0 = no effect, 100 = complete kill) at 62 g/ha in the test with corn (Postemergence, 62 g ai/ha, scale 0 to 100 (0 no effect, 100 complete control)) worked out at 20%.
